{"source": "paper PMC6071317", "about": "(European journal of medicinal chemistry, 2017)", "key": {"[1]": {"molecular_target": "human α1β3γ2 GABAA receptors (Homo sapiens, UniProt P14867+P28472)", "sequence (P14867 28-456)": "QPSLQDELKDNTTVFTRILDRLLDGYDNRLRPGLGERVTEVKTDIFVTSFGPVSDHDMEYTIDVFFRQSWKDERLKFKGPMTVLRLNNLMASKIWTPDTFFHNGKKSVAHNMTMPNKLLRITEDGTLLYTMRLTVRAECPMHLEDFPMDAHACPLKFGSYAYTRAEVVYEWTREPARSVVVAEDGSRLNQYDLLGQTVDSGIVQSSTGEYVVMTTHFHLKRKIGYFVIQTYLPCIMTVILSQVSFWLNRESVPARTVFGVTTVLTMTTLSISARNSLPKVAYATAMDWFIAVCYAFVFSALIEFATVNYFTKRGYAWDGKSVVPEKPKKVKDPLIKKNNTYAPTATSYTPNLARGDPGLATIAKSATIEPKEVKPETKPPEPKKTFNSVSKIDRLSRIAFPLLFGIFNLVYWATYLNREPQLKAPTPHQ", "sequence (P28472 26-473)": "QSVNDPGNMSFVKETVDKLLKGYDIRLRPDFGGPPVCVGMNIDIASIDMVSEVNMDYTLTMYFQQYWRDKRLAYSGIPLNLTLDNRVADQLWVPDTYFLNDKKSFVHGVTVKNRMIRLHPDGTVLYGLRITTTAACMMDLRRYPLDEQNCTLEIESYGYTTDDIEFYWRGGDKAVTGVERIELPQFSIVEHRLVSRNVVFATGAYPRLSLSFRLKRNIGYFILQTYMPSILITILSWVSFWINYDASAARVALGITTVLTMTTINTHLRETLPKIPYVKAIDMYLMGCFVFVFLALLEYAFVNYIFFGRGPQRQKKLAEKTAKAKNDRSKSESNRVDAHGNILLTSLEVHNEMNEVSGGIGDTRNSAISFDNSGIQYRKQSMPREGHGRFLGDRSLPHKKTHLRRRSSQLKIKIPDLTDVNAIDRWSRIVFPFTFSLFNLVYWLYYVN", "sequence (P18507 40-475 partner)": "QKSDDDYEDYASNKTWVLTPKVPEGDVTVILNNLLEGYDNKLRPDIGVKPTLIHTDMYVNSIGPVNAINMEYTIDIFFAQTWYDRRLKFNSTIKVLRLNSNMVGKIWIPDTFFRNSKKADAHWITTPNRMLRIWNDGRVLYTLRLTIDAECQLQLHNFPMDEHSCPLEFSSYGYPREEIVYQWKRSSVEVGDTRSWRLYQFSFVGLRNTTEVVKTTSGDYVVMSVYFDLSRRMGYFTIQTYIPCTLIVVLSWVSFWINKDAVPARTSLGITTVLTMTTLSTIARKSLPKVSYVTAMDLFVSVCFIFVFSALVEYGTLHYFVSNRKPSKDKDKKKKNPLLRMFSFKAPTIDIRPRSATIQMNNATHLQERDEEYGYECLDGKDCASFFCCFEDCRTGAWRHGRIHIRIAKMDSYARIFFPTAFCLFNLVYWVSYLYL", "assay": "Modulation of [3H]muscimol binding to GABAA receptor membranes from HEK293 cells", "details": "2 nM [3H]muscimol"}, "[2]": {"assay": "Partition coefficient", "assay_type": "physicochemical", "details": "difference to alphaxalone"}, "[3]": {"tested_on": "GABAAR", "details": "read-out: Potentiation EC50; bulk phase concentration; cited from earlier work"}, "[4]": {"molecular_target": "purified human α1β3γ2 GABAA receptor (Homo sapiens, UniProt P14867+P28472)", "sequence (P14867 28-456)": "as the sequence (P14867 28-456) above", "sequence (P28472 26-473)": "as the sequence (P28472 26-473) above", "sequence (P18507 40-475 partner)": "as the sequence (P18507 40-475 partner) above", "assay_type": "binding"}, "[5]": {"molecular_target": "purified α1β3γ2 GABAARs (Homo sapiens, UniProt P14867+P28472)", "sequence (P14867 28-456)": "as the sequence (P14867 28-456) above", "sequence (P28472 26-473)": "as the sequence (P28472 26-473) above", "sequence (P18507 40-475 partner)": "as the sequence (P18507 40-475 partner) above", "assay_type": "binding", "details": "3.5 μM [3H]azietomidate"}}}
{"smiles": "CC(=O)[C@H]1CC[C@H]2[C@@H]3CC[C@H]4C[C@H](O)CC[C@]4(C)[C@H]3[C@@H](OC(=O)c3c(F)c(F)c(N=[N+]=[N-])c(F)c3F)C[C@]12C", "note": "[F4N3Bzox-AP, 11β-(4-Azido-2,3,5,6-tetrafluorobenzoyloxy)-3α-hydroxy-5α-pregnane-20-one]", "values": [{"measurement": "Efficacy of modulation of [3H]muscimol binding", "setting": "[1]", "result": "228 ± 4", "unit": "%"}, {"measurement": "Hill coefficient of enhancement of [3H]muscimol binding", "setting": "[1]", "result": "1.9 ± 0.1"}, {"measurement": "Higher lipophilicity as compared to alphaxalone", "setting": "[2]", "result": "ca. 1.5 log P units"}]}
{"smiles": "CC(=O)[C@H]1CC[C@H]2[C@@H]3CC[C@H]4C[C@H](O)CC[C@]4(C)[C@H]3C(=O)C[C@]12C", "note": "[alphaxalone, Alphaxalone]", "values": [{"measurement": "EC50", "setting": "[3]", "result": 600, "unit": "nM"}]}
{"smiles": "CC(c1ccccc1)n1cncc1C(=O)OCCC1(C)N=N1", "note": "(stereo not drawn) [[^3H]azietomidate, reference compound]", "values": [{"measurement": "Pharmacologically specific subunit photolabeling (inhibitable by etomidate)", "setting": "[4]; [3H]azietomidate subunit photolabeling", "result": 80, "unit": "%"}, {"measurement": "α-subunits photolabeled", "setting": "[5]", "result": 10, "unit": "%"}]}
{"smiles": "CC(=O)[C@H]1CC[C@H]2[C@@H]3CC[C@H]4C[C@H](O)CC[C@]4(C)[C@H]3C3(C[C@]12C)N=N3", "note": "[11-aziAP, 11-Aziallopregnanolone]", "values": [{"measurement": "Efficacy of modulation of [3H]muscimol binding", "setting": "[1]", "result": "227 ± 2", "unit": "%"}, {"measurement": "Hill coefficient of enhancement of [3H]muscimol binding", "setting": "[1]", "result": "1.1 ± 0.2"}, {"measurement": "Enhancement of photolabeling by both probes ([3H]azietomidate, [3H]R-mTFD-MPAB)", "setting": "[4]; 0.3 and 1 μM", "result": "to the same extent as GABA or alphaxalone"}]}
